Data published in patent US10595532B2, “Ophthalmic contact lens solutions containing forms of vitamin B” (FXS Ventures, LLC, priority 2000, dated 2020).
Counter-ions that a name gives are not always drawn.

Legend:
Format in all cases: cell-based
[1] = system: C. albicans; test: in vitro microbicidal activity of dexpanthenol solutions in 0.25% Bis-Tris Propane buffer preserved with PHMB (Example 2); conditions: PHMB 0.5 ppm; for Log Reduction Calibicans 4 hour: C. albicans, room temperature, Bis-Tris Propane 0.25%, Cremophor 0.20%, Inositol 3.0%, Allantoin 0.1%, pH 7.2, dexpanthenol 0.1% or none
Procedure: (§1) Formulations containing dexpanthenol were prepared in a 0.25% Bis-Tris Propane buffer. The solutions were made isotonic with sodium chloride and preserved with polyhexamethylene biquanide at 0.00005%. The pH was adjusted to 7.2 with either 1 N sodium hydroxide or 1 N hydrochloric acid. The in vitro microbicidal activity of the solutions was determined by exposing C. albicans to 10 ml of each solution at room temperature for 4 hours. Subsequently, an aliquot of each solution was serial diluted onto agar plates and incubated for 48 hours at elevated temperatures. At the conclusion of the incubation period the plates are examined for the development of colonies. The log reduction was determined based on a comparison to the inoculum control. The following table provides the results of the in vitro studies.

[2] = system: E. coli; test: in vitro anti-microbial activity of vitamin B solutions in 0.5% Tris buffer with PHMB (Example 3); conditions: for effect on the preservative (PHMB): 0.5% vitamin B, 1 ppm PHMB, E. coli 1 hour; for Log Reduction at 1 hr: E. coli, room temperature, 0.5% Tris, 0.6% sodium chloride, pH 7.2, 1 ppm PHMB, vitamin B 0.5% or none
Procedure: (§2) Formulations containing Dexpanthanol (Spectrum), Pyridoxine HCl (Spectrum) Thiamine HCl (Spectrum), and no Vitamin B control were prepared in a 0.5% Tris buffer containing 0.6% sodium chloride. The pH was adjusted with 1 N HCl to a final pH of 7.2. Polyhexamethylene biquanide (PHMB) at 0.0001% was added to each formulation. The in vitro anti-microbial activity of the solutions was determined by exposing E. coli to 10 ml of each solution at room temperature for 1 hours. Subsequently, an aliquot of each solution was serial diluted onto agar plates and incubated for 48 hours at elevated temperatures. At the conclusion of the incubation period the plates are examined for the development of colonies. The log reduction was determined based on a comparison to the inoculum control.

[3] = system: E. coli; test: in vitro anti-microbial activity of vitamin B solutions in 0.5% Tris buffer with benzalkonium chloride (Example 4); conditions: for effect on the preservative (BAK): 0.5% vitamin B, 25 PPM BAK, E. coli 1 hour; for Log Reduction at 1 hr: E. coli, 0.5% Tris
Procedure: as §2, with “Polyhexamethylene biquanide (PHMB) at 0.0001% was added to each formulation.” left out, “hour.” for “hours.”, “control. The following table provides the results of the in vitro studies.” for “control.”

[4] = system: C. albicans; test: in vitro microbicidal activity of vitamin B solutions in 0.2% phosphate buffer preserved with PHMB (Example 1); conditions: PHMB 0.0001%; for activity against C. albicans as compared to the buffer control: 0.5% additive, 4 hours; for 4 Hour Log Reduction: C. albicans, room temperature, additive 0.5% in 0.2% phosphate buffer, isotonic, pH 7.2, vs inoculum control
Procedure: as §1, with “Pyridoxine HCl (Spectrum) and Thiamine HCl (Fisher)” for “dexpanthenol”, “0.2% phosphate” for “0.25% Bis-Tris Propane”, “biguanide” for “biquanide”, “0.0001%.” for “0.00005%.”, “control.” for “control. The following table provides the results of the in vitro studies.”

[5] = room temperature, 0.6% sodium chloride, pH 7.2, 25 PPM BAK, vitamin B 0.5%

CC(C)(CO)[C@@H](O)C(=O)NCCCO [Dexpanthenol, dexpanthenol]
Log Reduction Calibicans 4 hour [1]: 4.9 | preservative efficacy over a solution with a preservative alone ([1]; dexpanthenol 0.1%, C. albicans 4 hours): improved preservative efficacy | effect on the preservative (PHMB) [2]: enhancement of the preservative | Log Reduction at 1 hr [2]: 4.82 | effect on the preservative (BAK) [3]: enhancement of the preservative | Log Reduction at 1 hr [3, 5]: >5.12

Cc1ncc(CO)c(CO)c1O.Cl [Pyridoxine HCl]
activity against C. albicans as compared to the buffer control [4]: improvement in the activity | 4 Hour Log Reduction [4]: 2.0 | effect on the preservative (PHMB) [2]: enhancement of the preservative | Log Reduction at 1 hr [2]: 4.34 | effect on the preservative (BAK) [3]: enhancement of the preservative | Log Reduction at 1 hr [3, 5]: >5.12

Cc1ncc(C[n+]2csc(CCO)c2C)c(N)n1 [Thiamine HCl]
activity against C. albicans as compared to the buffer control [4]: improvement in the activity | 4 Hour Log Reduction [4]: 1.0 | effect on the preservative (PHMB) [2]: enhancement of the preservative | Log Reduction at 1 hr [2]: 5.12 | Log Reduction at 1 hr [3, 5]: 3.30

polyhexamethylene biguanide [PHMB]
Log Reduction Calibicans 4 hour [1]: 3.8 | Log Reduction at 1 hr [2]: 0.42 | Log Reduction at 1 hr ([3]; no vitamin B, row printed with 1 ppm PHMB): 0.42
